Source: patent US20200325518A1, “Systems and Methods for Metabolic Assessment Utilizing 1-Methoxy-PMS Field” (priority 2019, published 2020)
Like-named read-outs stand apart in the source and are kept apart here.

What was measured:
Format in all cases: cell-based
[1] = tested on: E. coli; assay: CLSI overnight reference method MIC of antimicrobials against E. coli strains; conditions: for MIC (CLSI Ref): unit assumed
[2] = tested on: P. aeruginosa; assay: Rapid AST by surface binding of europium probe with time resolved fluorescence; conditions: Pseudomonas aeruginosa
Protocol: The x-axis of each graph denotes the concentrations of antimicrobial Amikacin (AMK) in micrograms/milliliter, and the y-axis denotes fluorescence from binding to bacteria surface. Growth check data measured by optical density (Absorbance at 600 nm) of the bacterial culture is denoted for each strain.
AST was performed by surface binding of probe followed by time resolved fluorescence. The P aeruginosa strains were incubated at 35° C. in shaking conditions for 4 hours for attaining growth, and growth check was performed by measuring absorbance of the culture at 600 nm after 4 hours of growth.

[3] = tested on: Bacteria; assay: BacTiter-Glo luminescence after incubation of bacteria with or without resazurin; conditions: bacteria incubated 4 hours at 35° C. in presence of resazurin versus added after incubation
Protocol: Bacteria were inoculated into 96-well microplates comprise cation-adjusted Mueller Hinton broth in the presence and absence of resazurin (alamarBlue™) and incubated at 35° C. for 4 hours. For wells that were not incubated with resazurin, the growth indicator was added immediately after the 4-hour incubation. BacTiter-Glo® reagent (Promega, Madison, Wis.) was added to all wells and luminescence was measured. […] Thus, it can be advantageous to remove growth indicator from test wells during incubation.

[4] = E. coli strain Clinical Sample 1
[5] = E. coli strain Clinical Sample 2
[6] = E. coli strain Clinical Sample 4
[7] = E. coli strain Clinical Sample 5
[8] = E. coli strain Clinical Sample 6
[9] = E. coli strain Clinical Sample 7
[10] = E. coli strain Clinical Sample 8
[11] = E. coli strain Clinical Sample 9
[12] = E. coli strain Clinical Sample 10
[13] = E. coli strain Clinical Sample 11
[14] = E. coli strain Clinical Sample 12
[15] = E. coli strain Clinical Sample 13

NCC[C@H](O)C(=O)N[C@@H]1C[C@H](N)[C@@H](O[C@H]2O[C@H](CN)[C@@H](O)[C@H](O)[C@H]2O)[C@H](O)[C@H]1O[C@H]1O[C@H](CO)[C@@H](O)[C@H](N)[C@H]1O [AMK, Amikacin]
4 µg/mL: MIC (CLSI Ref) ([1]; E. coli strain BEI 4.097) | MIC (CLSI Ref) ([1]; E. coli strain CDC Carba36) | MIC (CLSI Ref) [1, 4] | MIC (CLSI Ref) [1, 5] | MIC (CLSI Ref) [1, 6] | MIC (CLSI Ref) [1, 7] | MIC (CLSI Ref) [1, 8] | MIC (CLSI Ref) [1, 10] | MIC (CLSI Ref) [1, 11] | MIC (CLSI Ref) [1, 13] | MIC (CLSI Ref) [1, 14] | MIC (CLSI Ref) [1, 15]
2 µg/mL: MIC (CLSI Ref) [1, 9]
8 µg/mL: MIC (CLSI Ref) [1, 12] | MIC ([2]; P. aeruginosa Strain 1, growth check value 2.18, 4 hours growth, read-out: MIC) | MIC ([2]; P. aeruginosa Strain 2, growth checkpoint value 1.13, no reliable MIC data obtained, read-out: MIC expected)

O=c1ccc2[n+]([O-])c3ccc(O)cc3oc-2c1 [resazurin, 7-hydroxy-10-oxidophenoxazin-10-ium-3-one]
less luminescent signal: luminescent signal upon addition of BacTiter-Glo (viable bacteria) [3]

Piperacillin/tazobactam [TZP]
4 µg/mL: MIC (CLSI Ref) ([1]; E. coli strain BEI 4.097) | MIC (CLSI Ref) [1, 4] | MIC (CLSI Ref) [1, 6] | MIC (CLSI Ref) [1, 7] | MIC (CLSI Ref) [1, 9]
2 µg/mL: MIC (CLSI Ref) [1, 8] | MIC (CLSI Ref) [1, 12] | MIC (CLSI Ref) [1, 13] | MIC (CLSI Ref) [1, 14]
32 µg/mL: MIC (CLSI Ref) [1, 10] | MIC (CLSI Ref) [1, 15]
128 µg/mL: MIC (CLSI Ref) ([1]; E. coli strain CDC Carba36)
8 µg/mL: MIC (CLSI Ref) [1, 5]
> 128 µg/mL: MIC (CLSI Ref) [1, 11]

Trimethoprim-Sulfamethoxazole [SXT]
4 µg/mL: MIC (CLSI Ref) [1, 5]
2 µg/mL: MIC (CLSI Ref) [1, 8]
< 0.5 µg/mL: MIC (CLSI Ref) ([1]; E. coli strain BEI 4.097) | MIC (CLSI Ref) ([1]; E. coli strain CDC Carba36) | MIC (CLSI Ref) [1, 4] | MIC (CLSI Ref) [1, 10] | MIC (CLSI Ref) [1, 13] | MIC (CLSI Ref) [1, 14] | MIC (CLSI Ref) [1, 15]
> 32 µg/mL: MIC (CLSI Ref) [1, 6] | MIC (CLSI Ref) [1, 7] | MIC (CLSI Ref) [1, 9] | MIC (CLSI Ref) [1, 11] | MIC (CLSI Ref) [1, 12]
R: CLSI breakpoint interpretation [1, 5]
